# What was measured:
# histamine H3 receptor = biological target: T1, histamine H3 receptor (Homo sapiens, UniProt Q9Y5N1); assay: Histamine H3 functional antagonist assay (GTPγS, membranes); assay type: biochemical; conditions: CHO K1 membranes, [35S]-GTPγS, histamine at EC80; read-out: average pKi (pKb) at H3 (converted)
# T1 construct: expressed in transfected cells; host or cells: CHO K1 cells with pSwitch/pGeneH3 (GeneSwitch, mifepristone-induced), clone 3H3; membrane preparation
# Procedure: The histamine H3 cDNA is isolated from its holding vector, pcDNA3.1 TOPO (InVitrogen), by restriction digestion of plasmid DNA with the enzymes BamH1 and Not-1 and is ligated into the inducible expression vector pGene (InVitrogen) digested with the same enzymes. The GeneSwitchTM system (a system where in transgene expression is switched off in the absence of an inducer and switched on in the presence of an inducer) is performed as described in U.S. Pat. Nos. 5,364,791; 5,874,534; and 5,935,934. Ligated DNA is transformed into competent DH5α E. coli host bacterial cells and is plated onto Luria Broth (LB) agar containing ZeocinTM (an antibiotic which allows the selection of cells expressing the sh ble gene which is present on pGene and pSwitch) at 50 μgml^-1. Colonies containing the re-ligated plasmid are identified by restriction analysis. DNA for transfection into mammalian cells is prepared from 250 ml cultures of the host bacterium containing the […]3 plasmid and is isolated using a DNA preparation kit (Qiagen Midi-Prep) as per manufacturers guidelines (Qiagen). CHO K1 cells previously transfected with the pSwitch regulatory plasmid (InVitrogen) are seeded at 2×10^6 cells per T75 flask in Complete Medium, containing Hams F12 (GIBCOBRL, Life Technologies) medium supplemented with 10% v/v dialysed foetal bovine serum, L-glutamine, and hygromycin (100 μgml^-1), 24 h prior to use. Plasmid DNA is transfected into the cells using Lipofectamine plus according to the manufacturer's guidelines (InVitrogen). 48 h post transfection, cells are placed into complete medium supplemented with 500 μgml^-1 ZeocinTM. 10-14 days post selection, 10 nM Mifepristone (InVitrogen) is added to the culture medium to induce the expression of the receptor. 18 h post induction, cells are detached from the flask using ethylenediamine tetra-acetic acid (EDTA; 1:5000; InVitrogen), following several washes with PBS, pH 7.4 and are resuspended in Sorting Medium containing Minimum Essential Medium (MEM), without phenol red, and are supplemented with Earles salts and 3% Foetal Clone II (Hyclone). Approximately 1×10^7 cells are examined for receptor expression by staining with a rabbit polyclonal antibody, 4a, raised against the N-terminal domain of the histamine H3 receptor, are incubated on ice for 60 min, followed by two washes in sorting medium. Receptor bound antibody is detected by incubation of the cells for 60 min on ice with a goat anti rabbit antibody, conjugated with Alexa 488 fluorescence marker (Molecular Probes). Following two further washes with Sorting Medium, cells are filtered through a 50 μm FilconTM (BD Biosciences) and then are analysed on a FACS Vantage SE Flow Cytometer fitted with an Automatic Cell Deposition Unit. Control cells are non-induced cells treated in an analogous manner. Positively stained cells are sorted as single cells into 96-well plates, containing Complete Medium containing 500 μgml^-1 ZeocinTM and are allowed to expand before reanalysis for receptor expression via antibody and ligand binding studies. One clone, 3H3, is selected for membrane preparation. All steps of the protocol are carried out at 4° C. and with pre-cooled reagents. The cell pellet is resuspended in 10 volumes of homogenisation buffer (50 mM N-2-hydroxyethylpiperazine-N'-2-ethanesulfonic acid (HEPES), 1 mM ethylenediamine tetra-acetic acid (EDTA), pH 7.4 with KOH, supplemented with 10^-6 M leupeptin (acetyl-leucyl-leucyl-arginal; Sigma L2884), 25 μgml^-1 bacitracin (Sigma B0125), 1 mM phenylmethylsulfonyl fluoride (PMSF) and 2×10^-6 M pepstain A (Sigma)). The cells are then homogenised by 2×15 sec bursts in a 1 L glass Waring blender, followed by centrifugation at 500 g for 20 min. The supernatant is then spun at 48,000 g for 30 min. The pellet is resuspended in homogenisation buffer (4× the volume of the original cell pellet) by vortexing for 5 sec, followed by homogenisation in a Dounce homogeniser (10-15 strokes). […]
# human H1 receptor = biological target: T2, human H1 receptor (Homo sapiens, UniProt P35367); assay: Histamine H1 functional antagonist assay: determination of functional pKi values (FLIPR); assay type: cell-based; conditions: CHO cells expressing human H1 receptor, histamine at EC80, read-out: average pKi (pKb) at H1 (converted)
# T2 construct: expressed in transfected cells
# Procedure: The human H1 receptor is cloned using known procedures described in the literature [Biochem. Biophys. Res. Commun., 201(2):894 (1994)]. Chinese hamster ovary (CHO) cells stably expressing the human H1 receptor are generated according to known procedures described in the literature [Br. J. Pharmacol., 117(6):1071 (1996)]. The histamine H1 cell line is seeded into non-coated black-walled clear bottom 384-well tissue culture plates in alpha minimum essential medium (Gibco/Invitrogen, cat no. 22561-021), supplemented with 10′)/0 dialysed foetal calf serum (Gibco/Invitrogen cat no. 12480-021) and 2 mM L-glutamine (Gibco/Invitrogen cat no 25030-024) and is maintained overnight at 5% CO2, 37° C. Excess medium is removed from each well to leave 10 μl. 30 μl loading dye (250 μM Brilliant Black, 2 μM Fluo-4 diluted in Tyrodes buffer+probenecid (145 mM NaCl, 2.5 mM KCl, 10 mM HEPES, 10 mM D-glucose, 1.2 mM MgCl2, 1.5 mM CaCl2, 2.5 mM probenecid, pH adjusted to 7.40 with NaOH 1.0 M)) is added to each well and the plates are incubated for 60 min at 5% CO2, 37° C. 10 μl of test compound, diluted to the required concentration in Tyrodes buffer+probenecid (or 10 μl Tyrodes buffer+probenecid as a control) is added to each well and the plate is incubated for 30 min at 37° C., 5% CO2. The plates are then placed into a FLIPR™(Molecular Devices, UK) to monitor cell fluorescence (λex=488 nm, λEM=540 nm) in the manner described in Sullivan et al., (In: Lambert DG (ed.), Calcium Signaling Protocols, New Jersey: Humana Press, 1999, 125-136) before and after the addition of 10 μl histamine at a concentration that results in the final assay concentration of histamine being EC80. Functional antagonism is indicated by a suppression of histamine induced increase in fluorescence, as measured by the FLIPR™ system (Molecular Devices). By means of concentration effect curves, functional affinities are determined using standard pharmacological mathematical analysis.
# T1 sequence (Q9Y5N1 whole entry, species assumed): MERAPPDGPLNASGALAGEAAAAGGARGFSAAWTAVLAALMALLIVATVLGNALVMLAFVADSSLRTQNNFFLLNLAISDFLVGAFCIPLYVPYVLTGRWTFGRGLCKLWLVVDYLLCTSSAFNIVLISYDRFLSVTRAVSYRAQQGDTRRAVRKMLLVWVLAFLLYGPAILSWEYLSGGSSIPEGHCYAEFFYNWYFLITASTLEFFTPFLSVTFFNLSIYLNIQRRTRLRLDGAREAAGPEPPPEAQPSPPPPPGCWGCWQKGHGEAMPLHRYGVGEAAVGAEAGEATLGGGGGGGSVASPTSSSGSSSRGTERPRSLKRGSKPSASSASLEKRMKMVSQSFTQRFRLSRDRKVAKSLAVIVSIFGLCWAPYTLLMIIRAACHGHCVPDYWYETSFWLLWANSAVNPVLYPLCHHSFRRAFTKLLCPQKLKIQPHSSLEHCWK
# T2 sequence (P35367 whole entry): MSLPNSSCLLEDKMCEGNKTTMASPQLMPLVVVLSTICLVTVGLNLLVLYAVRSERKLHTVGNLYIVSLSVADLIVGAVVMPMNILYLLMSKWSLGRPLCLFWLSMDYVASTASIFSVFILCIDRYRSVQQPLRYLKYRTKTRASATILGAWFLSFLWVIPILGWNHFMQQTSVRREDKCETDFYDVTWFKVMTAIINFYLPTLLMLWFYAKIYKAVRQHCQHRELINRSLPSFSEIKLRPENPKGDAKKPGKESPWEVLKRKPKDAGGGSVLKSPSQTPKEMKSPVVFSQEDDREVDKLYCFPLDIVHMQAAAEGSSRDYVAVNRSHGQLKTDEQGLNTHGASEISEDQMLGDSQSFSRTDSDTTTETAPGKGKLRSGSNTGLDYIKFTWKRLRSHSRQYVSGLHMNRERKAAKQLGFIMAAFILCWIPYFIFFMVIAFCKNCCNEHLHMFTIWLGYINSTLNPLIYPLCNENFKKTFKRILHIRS
SMILES,Ki (histamine H3 receptor) [nM],Ki (human H1 receptor) [nM]
"CCCCc1cc(OC2CCN(CCCC(=O)N3CCCCC3)CC2)c2ncccc2c1 [Example 24, 6-butyl-8-({1-[4-oxo-4-(1-piperidinyl)butyl]-4-piperidinyl}oxy)quinoline]",> 3160,< 100
"CCCCc1cc(OC2CCN(C[C@H]3CC[C@H](C(=O)NC(C)C)CC3)CC2)c2ncccc2c1 [Example 42, Trans-4-({4-[(6-butyl-8-quinolinyl)oxy]-1-piperidinyl}methyl)-N-(1-methylethyl)cyclohexanecarboxamide]",> 316,< 100
"CCCCc1cc(OC2CCN(CC(=O)NCCOC)CC2)c2ncccc2c1 [Example 11, 2-{4-[(6-butyl-8-quinolinyl)oxy]-1-piperidinyl}-N-[2-(methyloxy)ethyl] acetamide]",> 3160,< 100
"CCCCc1cc(OC2CCN(CCC3CCN(C(C)=O)CC3)CC2)c2ncccc2c1 [Example 3, 8-({1-[2-(1-Acetyl-4-piperidinyl)ethyl]-4-piperidinyl}oxy)-6-butylquinoline]",> 316,< 100
"CCCCc1cc(OC2CCN(CCCCNC(=O)C(C)C)CC2)c2ncccc2c1 [Example 66, N-(4-{4-[(6-butyl-8-quinolinyl)oxy]-1-piperidinyl}butyl)-2-methylpropanamide]",> 316,< 100
"CCCCc1cc(OC2CCN(CCCCNC(=O)C(C)(C)C)CC2)c2ncccc2c1 [Example 67, N-(4-{4-[(6-butyl-8-quinolinyl)oxy]-1-piperidinyl}butyl)-2,2-dimethyl propanamide]",> 316,< 10
"CCCCc1cc(OC2CCN(CCCC(=O)NCCCOC)CC2)c2ncccc2c1 [Example 21, 4-{4-[(6-butyl-8-quinolinyl)oxy]-1-piperidinyl}-N-[3-(methyloxy)propyl] butanamide]",> 3160,< 10
"CCCCc1cc(OC2CCN(C[C@H]3CC[C@H](C(=O)NCCC)CC3)CC2)c2ncccc2c1 [Example 45, Trans-4-({4-[(6-butyl-8-quinolinyl)oxy]-1-piperidinyl}methyl)-N-propylcyclohexane carboxamide]",> 316,< 10
"CCCCc1cc(OC2CCN(CCCCNC(=O)CC)CC2)c2ncccc2c1 [Example 64, N-(4-{4-[(6-Butyl-8-quinolinyl)oxy]-1-piperidinyl}butyl)propanamide]",> 316,< 10
"CCCCc1cc(OC2CCN(CCCCCNC(=O)C3CCCCC3)CC2)c2ncccc2c1 [Example 78, N-(5-{4-[(6-butyl-8-quinolinyl)oxy]-1-piperidinyl}pentyl) cyclohexane carboxamide]",> 316,< 10
"CCCCc1cc(OC2CCN(CC3CCN(C(C)=O)CC3)CC2)c2ncccc2c1 [Example 1, 8-({1-[(1-Acetyl-4-piperidinyl)methyl]-4-piperidinyl}oxy)-6-butylquinoline]",> 316,< 100
"CCCCc1cc(OC2CCN(CCCCNC(=O)CCC)CC2)c2ncccc2c1 [Example 65, N-(4-{4-[(6-butyl-8-quinolinyl)oxy]-1-piperidinyl}butyl) butanamide]",> 316,< 10
"CCCCCCc1cc(OC2CCN(C[C@H]3CC[C@H](C(=O)N4CCCCC4)CC3)CC2)c2ncccc2c1 [Example 51, 6-hexyl-8-[(1-{[trans-4-(1-piperidinylcarbonyl)cyclohexyl]methyl}-4-piperidinyl)oxy]quinoline]",> 316,< 100
"CCCCc1cc(OC2CCN(C[C@H]3CC[C@H](C(=O)N4CCCC4)CC3)CC2)c2ncccc2c1 [Example 62, 6-butyl-8-[(1-{[trans-4-(1-pyrrolidinylcarbonyl)cyclohexyl]methyl}-4-piperidinyl)oxy]quinoline]",> 316,< 10
"CCCCCCc1cc(OC2CCN(C[C@H]3CC[C@H](C(=O)NCCC(C)C)CC3)CC2)c2ncccc2c1 [Example 50, trans-4-({4-[(6-hexyl-8-quinolinyl)oxy]-1-piperidinyl}methyl)-N-(3-methylbutyl) cyclohexane carboxamide]",> 316,< 100
"CCCCCc1cc(OC2CCN(CCCC(=O)N(CC)CC)CC2)c2ncccc2c1 [Example 89, N,N-Diethyl-4-{4-[(6-pentyl-8-quinolinyl)oxy]-1-piperidinyl}butanamide]",> 316,< 100
"CCCCc1cc(OC2CCN(CCC(=O)NC(C)C)CC2)c2ncccc2c1 [Example 19, 3-{4-[(6-butyl-8-quinolinyl)oxy]-1-piperidinyl}-N-(1-methylethyl) propanamide]",> 3160,< 10
"CCCCc1cc(OC2CCN(CCCC(=O)NC(C)C)CC2)c2ncccc2c1 [Example 25, 4-{4-[(6-butyl-8-quinolinyl)oxy]-1-piperidinyl}-N-(1-methylethyl)butanamide]",> 3160,< 10
"CCCCc1cc(OC2CCN(CCCNC(=O)CC)CC2)c2ncccc2c1 [Example 86, N-(3-{4-[(6-Butyl-8-quinolinyl)oxy]-1-piperidinyl}propyl)propanamide]",> 316,< 10
"CCCCc1cc(OC2CCN(C[C@H]3CC[C@H](C(=O)NCc4ccc(C)cc4)CC3)CC2)c2ncccc2c1 [Example 60, trans-4-({4-[(6-butyl-8-quinolinyl)oxy]-1-piperidinyl}methyl)-N-[(4-methylphenyl)methyl]cyclohexane carboxamide]",> 316,< 100
"CCCCc1cc(OC2CCN(CCC3CCN(C(=O)CC)CC3)CC2)c2ncccc2c1 [Example 4, 6-Butyl-8-({1-[2-(1-propanoyl-4-piperidinyl)ethyl]-4-piperidinyl}oxy)quinoline]",> 316,< 100
"CCCCc1cc(O[C@H]2CCN(CCCC(=O)N3CCCCC3)C2)c2ncccc2c1 [Example 39, 6-butyl-8-({(3S)-1-[4-oxo-4-(1-piperidinyl)butyl]-3-pyrrolidinyl}oxy)quinoline]",> 316,< 10
